{"source": "patent US6060518A", "about": "“Polymer compositions for chemotherapy and methods of treatment using the same” (Supratek Pharma Inc., priority 1996, dated 2000)", "key": {"[1]": {"test_system": "Lewis Lung Carcinoma (3LL) Cell Line, subline H-59", "test": "XTT cytotoxicity assay, Lewis Lung Carcinoma 3LL (H-59) cells", "format": "cell-based", "conditions": "Mus musculus, read-out: IC50, doxorubicin (concentration producing 50% inhibition of cell growth)", "description": "A highly metastatic clonal Lewis Lung Carcinoma cell subline H-59 (3LL) was used to evaluate cytotoxic activity of Prep. C and compare it with that of doxorubicin. To this end, the cells were suspended in RPMI 1640 medium supplemented with 10% fetal calf serum, and plated at 2000-3000 cells/well into 96-well microtiter plates. Prep. C in which doxorubicin final concentrations varied from 1 to 10,000 ng/ml was added to the cells and incubated for 2 hours at 37° C. and 5% CO2. The cells were then washed three times with RPMI 1640 and cultured for 4 days. Drug cytotoxicity was determined by a standard XTT assay. To this end, sterile 1 mg/ml XTT solution in RPMI 1640 containing 5 μl/ml of 1.54 μg/ml phenazine methasulfate solution in sterile PBS was added to the cells (100 μl/well) and incubated for 4 to 16 hours at 37° C. and 5% CO2. The absorbance at λ420 was determined using a microplate reader. All the experiments were carried out in triplicate. SEM values were less than 10% (P<0.05). the concentrations of free doxorubicin and doxorubicin in Prep."}, "[2]": {"test_system": "Lewis Lung Carcinoma (3LL-H59)", "test": "Metastasis development after i.v. inoculation of 3LL-H59 cells", "format": "in vivo, Female C57BL/6 mice", "conditions": "Dox 5.0 mg/kg, L61 0.25% w/v, PEG8000 1% w/v, Days 1, 4, 7, 10 animals per group", "protocol": "A highly metastatic clonal subline H59 of Lewis Lung, Carcinoma (3LL-H59) was used as a model. […] These cells were cultured in D-MEM supplemented with 10% FCS at 37° C. in a humidified atmosphere with 5% CO2. After 7 to 10 passes in culture, the cells in their logarithmic growth phase were harvested with trypsin for the following experiments.\nAnimals. Female C57BL/6 mice were obtained from Charles River Canada Inc. (St. Constant, Quebec, Canada) and used at 6 to 7 weeks of age. Animals were grouped five per cage with air filter cover under a light (12-h light/dark cycle, light on at 06h00) and temperature-controlled environment (22 ±1° C.). All manipulations of animals were performed under a sterilized laminar. The animals had ad libitum access to Purina Mouse Chow (Pro Lab PMH 4018, Trademark of Agway, Syracuse, N.Y.) and water. […]\nAt Day 16 after tumor inoculation, the animals were sacrificed and subjected to routine metastasis inspection. All organs were routinely screened, although metastatic formations were normally detected only in the lung. […] The data are expressed as means±SEM for the number of metastatic sites and as the percentage of the animals having metastasis for the incidence of metastasis development. Statistical significance was calculated according to the multiple range test of Duncan-Kramer. […]"}}}
{"compound": "COc1cccc2c1C(=O)c1c(O)c3c(c(O)c1C2=O)C[C@@](O)(C(=O)CO)C[C@@H]3O[C@H]1C[C@H](N)[C@H](O)[C@H](C)O1", "note": "[Doxorubicin, doxorubicin]", "values": [{"measurement": "IC50", "setting": "[1]", "value": 0.11, "unit": "µg/mL"}, {"measurement": "Incidence (animals having metastasis)", "setting": "[2]; Day 16", "value": 100, "unit": "%"}, {"measurement": "Number of metast. sites on lung periphery ±SEM", "setting": "[2]; counted Day 16", "value": "8.90 ± 2.56"}]}
